Patent publication US6781015B2, “Aminobenzophenones and photopolymerizable compositions including the same” (Albemarle Corporation, priority 1997, dated 2004)
Several values for one entry are separate records, joined by “and”; a condition that tells them apart may be missing. Equal values may be shown once.

Columns and labels:
[1] = Most concentrated stock solution in acetone; type: physicochemical; conditions: clear, light yellow solution
Method: (§1) The test article TMMK was stored at room temperature. Acetone (CAS# 67-64-1, Fisher Scientific Co., Lot 961140) was used as the vehicle. At 20 mg per ml, which was the most concentrated stock solution which could be prepared, the test article formed a clear, light yellow solution. The test article remained a solution in all succeeding dilutions prepared for the mutagenicity assay. The maximum aliquot of acetone which can be used in the test system is 200 μl. Thus, the maximum concentration which could be tested was 4,000 μg per plate. The test article and vehicle controls were plated using a 200 μl plating aliquot. Positive control articles were plated using 50 μl plating aliquot.

[2] = test system: Salmonella typhimurium tester strain TA98; experiment: Salmonella/Mammalian-Microsome Reverse Mutation Screening Assay (Ames Test); type: cell-based; parameters: key to Background lawn: 1 = normal; 2 = slightly reduced; 3 = moderately reduced; 4 = extremely reduced; 5 = absent; 6 = obscured by precipitate; sp = slight precipitate; mp = moderate precipitate (requires hand count); hp = heavy precipitate (requires hand count); conditions: for Individual plate counts, revertants per plate: plates 1-3
Method: Mutagenicity can be measured by a variety of assays. The most commonly used method is the Salmonella/Mammalian-Microsome Reverse Mutation Screening Assay (Ames Test), which commonly uses four or five strains of Salmonella bacteria to detect different types of mutations.
TMMK, TEMK and MEAB were evaluated for the ability to induce reverse mutations at the histidine locus in the genome of a specific Salmonella typhimurium tester strain in the presence of an exogenous metabolic activation system of mammalian microsomal enzymes derived from Aroclor™-induced rat liver (S9). The tester strain used in the mutagenicity assay was Salmonella typhimurium tester strain TA98 with added activation. The assay was conducted using eight doses of the test article, along with the appropriate vehicle and positive controls in the presence of S9 mix (S9 homogenate was purchased from Molecular Toxicology, Inc., Annapolis, Md. 21401, Batch 0646, 43.4 mg of protein per ml). Positive controls were also plated in the absence of S9 mix. All doses of test article, vehicle, and positive controls were plated in triplicate.
as §1
The test article TEMK was stored at room temperature. Acetone (CAS# 67-64-1, Fisher Scientific Co., Lot 961140) was used as the vehicle. At 100 mg per ml, which was the most concentrated stock solution prepared, the test article formed a clear, yellow solution. The test article remained a solution in all succeeding dilutions prepared for the mutagenicity assay. The test article, vehicle controls and positive control articles were plated using a 50 μl plating aliquot.
The test article MEAB was stored at room temperature. Acetone (CAS#67-64-1, Fisher Scientific Co., Lot 961140) was used as the vehicle. At 25 mg per ml, which was the most concentrated stock solution prepared, the test article formed a clear, light yellow solution. The test article remained a solution in all succeeding dilutions prepared for the mutagenicity assay. The test article and vehicle controls were plated using a 200 μl plating aliquot. Positive control articles were plated using a 50 μl plating aliquot.
The data are presented as individual plate counts along with a mean and standard deviation.

[3] = test system: Salmonella typhimurium tester strain TA98; conditions: strain TA98 with added mammalian metabolic activation, adequate concentrations of test material; cited from earlier work
[4] = based on cancer studies in rats and mice; cited from earlier work
[5] = TA98, rat liver S9, 3.33 μg/plate
[6] = TA98, rat liver S9, 10.0 μg/plate
[7] = TA98, rat liver S9, 33.3 μg/plate
[8] = TA98, rat liver S9, 100 μg/plate
[9] = TA98, rat liver S9, 333 μg/plate
[10] = TA98, rat liver S9, 1000 μg/plate
[11] = TA98, rat liver S9, 3330 μg/plate
[12] = TA98, rat liver S9, 4000 μg/plate
[13] = tester strain TA98 in the presence of S9 mix

CN(C)c1ccc(C(=O)c2ccc(N(C)C)cc2)cc1 [TMMK, 4,4′-bis(dimethylamino)benzophenone]
Most concentrated stock solution which could be prepared [1]: 20 mg per ml | Mean revertants per plate [2, 5]: 22 revertants per plate | Individual plate counts, revertants per plate [2, 5]: 14 revertants per plate and 29 revertants per plate and 24 revertants per plate | Mean revertants per plate [2, 6]: 16 revertants per plate | Individual plate counts, revertants per plate [2, 6]: 9 revertants per plate and 19 revertants per plate (2×) | Mean revertants per plate [2, 7]: 31 revertants per plate | Individual plate counts, revertants per plate [2, 7]: 21 revertants per plate and 35 revertants per plate and 37 revertants per plate | Mean revertants per plate [2, 8]: 17 revertants per plate | Individual plate counts, revertants per plate [2, 8]: 16 revertants per plate and 12 revertants per plate and 22 revertants per plate | Mean revertants per plate [2, 9]: 18 revertants per plate | Individual plate counts, revertants per plate [2, 9]: 18 revertants per plate and 23 revertants per plate and 12 revertants per plate | Mean revertants per plate [2, 10]: 31 revertants per plate | Individual plate counts, revertants per plate [2, 10]: 35 revertants per plate and 26 revertants per plate and 33 revertants per plate | Mean revertants per plate [2, 11]: 79 revertants per plate | Individual plate counts, revertants per plate [2, 11]: 78 revertants per plate (2×) and 82 revertants per plate | Mean revertants per plate [2, 12]: 81 revertants per plate | Individual plate counts, revertants per plate [2, 12]: 80 revertants per plate and 70 revertants per plate and 93 revertants per plate | Background lawn ([2]; Table 1, TA98, rat liver S9, 3.33 μg/plate): 1 | Background lawn ([2]; Table 1, TA98, rat liver S9, 10.0 μg/plate): 1 | Background lawn ([2]; Table 1, TA98, rat liver S9, 33.3 μg/plate): 1 | Background lawn ([2]; Table 1, TA98, rat liver S9, 100 μg/plate): 1 sp | Background lawn ([2]; Table 1, TA98, rat liver S9, 333 μg/plate): 1 mp | Background lawn ([2]; Table 1, TA98, rat liver S9, 1000 μg/plate): 1 mp | Background lawn ([2]; Table 1, TA98, rat liver S9, 3330 μg/plate): 6 mp | Background lawn ([2]; Table 1, TA98, rat liver S9, 4000 μg/plate): 6 mp | Background lawn ([2]; Table 2 summary, TA98, rat liver S9, 3.33 μg/plate): 1 | Background lawn ([2]; Table 2 summary, TA98, rat liver S9, 10.0 μg/plate): 1 | Background lawn ([2]; Table 2 summary, TA98, rat liver S9, 33.3 μg/plate): 1 | Background lawn ([2]; Table 2 summary, TA98, rat liver S9, 100 μg/plate): 1 sp | Background lawn ([2]; Table 2 summary, TA98, rat liver S9, 333 μg/plate): 1 mp | Background lawn ([2]; Table 2 summary, TA98, rat liver S9, 1000 μg/plate): 1 mp | Background lawn ([2]; Table 2 summary, TA98, rat liver S9, 3330 μg/plate): 6 mp | Background lawn ([2]; Table 2 summary, TA98, rat liver S9, 4000 μg/plate): 6 mp | Ames Test outcome (mutagenicity) [2, 13]: mutagenic | Increase in the number of revertants per plate [2, 13]: 3.9 fold | Ames Test outcome in the literature [3]: consistently found to have mutations | National Toxicology Program carcinogen listing [4]: reasonably anticipated to be a carcinogen
